The compounds below were run against T1, human mTOR (Homo sapiens, UniProt P42345) (assay: Inhibition of mTOR (LanthaScreen TR-FRET, GFP-4E-BP1 substrate)). Settings: purified mTor, GFP-4E-BP1 and ATP, 30 min at room temperature; read-out: pIC50 for inhibition of human mTOR in the assay of Example A (converted).
T1 construct: purchased Invitrogen
Format: biochemical
Experimental: Example A Inhibition of mTOR
Purified mTor are purchased from Invitrogen. mTor activity was determined using Invitrogen's LanthaScreen system. The inhibitory properties of compounds relative to mTor may be determined using a black 384-well-plate format in the following buffer 50 mM Hepes, 10 mM NaCl, 10 mM MgCl2, 0.2 mM EDTA, 0.01% Brij35, 2 mM DTT at pH7.3. The test compound is prepared in DMSO using 2 fold serial dilutions for 11 data points which are added to the buffer so that each dilution contains 3% DMSO.
An assay for mTor inhibition is as follows:
Combine in each well 2 μl of 1.2 μM GFP-4E-BP1 (Invitrogen) and 150 μM ATP (in buffer), 2 μl of diluted test compound (3% DMSO in buffer), and 2 μl of 6 nM mTor in buffer. The reaction mixture is then incubated at room temperature for 30 min, and quenched by adding 40 mM ETDA with 4 nM Tb-anti-p4E-BP1 [pThr46] antibody in TR-FRET dilution buffer (Invitrogen). The plate is kept at room temperature for 1 hour and then read using PheraStar (BMG labtech) LanthaScreen mode.
pIC50 values, the negative of the log of the IC50, are calculated by non-linear curve fitting of the compound concentrations and percent of inhibition to the standard pIC50 equation.
In the case of `CNC(=O)Nc1ccc(-c2nc(N3CC4CCC(C3)O4)c3c(n2)C2(CC2)OC3)cc1` [Example 13, 1-(4-(4′-(8-oxa-3-azabicyclo[3.2.1]octan-3-yl)-5′H-spiro[cyclopropane-1,7′-furo[3,4-d]pyrimidine]-2′-yl)phenyl)-3-methylurea], the IC50 is reported as under 31.6 nM. `CNC(=O)Nc1ccc(-c2nc(N3CC4CCC(C3)O4)c3c(n2)C(C)(C)CO3)cc1` [Example 4, 1-(4-(4-(8-oxa-3-azabicyclo[3.2.1]octan-3-yl)-7,7-dimethyl-6,7-dihydrofuro[3,2-d]pyrimidin-2-yl)phenyl)-3-methylurea] showed an IC50 of under 31.6 nM. In the case of `CC1(C)OCc2c(N3CCOCC3)nc(-c3ccc(NC(=O)NC4CC4)cc3)nc21` [Example 11, 1-cyclopropyl-3-(4-(7,7-dimethyl-4-morpholino-5,7-dihydrofuro[3,4-d]pyrimidin-2-yl)phenyl)urea], the IC50 is reported as under 31.6 nM. `CNC(=O)Nc1ccc(-c2nc(N3CC4CCC(C3)O4)c3c(n2)C(C)(O)OC3)cc1` (stereo not drawn) [Example 12, 1-(4-(4-(8-oxa-3-azabicyclo[3.2.1]octan-3-yl)-7-hydroxy-7-methyl-5,7-dihydrofuro[3,4-d]pyrimidin-2-yl)phenyl)-3-methylurea] showed an IC50 of 31.6 to 1000 nM. `CNC(=O)Nc1ccc(-c2nc(N3CC4CCC(C3)O4)c3c(n2)C(C)(C)OC3)cc1` [Example 6, 1-(4-(4-(8-oxa-3-azabicyclo[3.2.1]octan-3-yl)-7,7-dimethyl-5,7-dihydrofuro[3,4-d]pyrimidin-2-yl)phenyl)-3-methylurea] showed an IC50 of under 31.6 nM. `CCNC(=O)Nc1ccc(-c2nc(N3CC4CCC(C3)O4)c3c(n2)C(C)(C)OC3)cc1` [Example 9, 1-(4-(4-(8-oxa-3-azabicyclo[3.2.1]octan-3-yl)-7,7-dimethyl-5,7-dihydrofuro[3,4-d]pyrimidin-2-yl)phenyl)-3-ethylurea] was tested, and the IC50 was under 31.6 nM. In the case of `CCNC(=O)Nc1ccc(-c2nc(N3CCOCC3)c3c(n2)C2(CC2)OC3)cc1` [Example 14, 1-ethyl-3-(4-(4′-morpholino-5′H-spiro[cyclopropane-1,7′-furo[3,4-d]pyrimidine]-2′-yl)phenyl)urea], the IC50 is reported as under 31.6 nM. `CCNC(=O)Nc1ccc(-c2nc(N3CCOCC3)c3c(n2)C(C)(C)OC3)cc1` [Example 10] gave an IC50 of under 31.6 nM. `CNC(=O)Nc1ccc(-c2nc(N3CCOCC3)c3c(n2)C(C)(C)CO3)cc1` [Example 2, 1-(4-(7,7-dimethyl-4-morpholino-6,7-dihydrofuro[3,2-d]pyrimidin-2-yl)phenyl)-3-methylurea] showed an IC50 of under 31.6 nM. Compound `O=C(Nc1ccc(-c2nc(N3CCOCC3)c3c(n2)C2(CC2)OC3)cc1)NC1CC1` [Example 15, 1-cyclopropyl-3-(4-(4′-morpholino-5′H-spiro[cyclopropane-1,7′-furo[3,4-d]pyrimidine]-2′-yl)phenyl)urea] has an IC50 of under 31.6 nM. Work on `CNC(=O)Nc1ccc(-c2nc(N3CCOCC3)c3c(n2)C(C)(C)OC3)cc1` [Example 8, 1-(4-(7,7-dimethyl-4-morpholino-5,7-dihydrofuro[3,4-d]pyrimidin-2-yl)phenyl)-3-methylurea] yielded an IC50 of under 31.6 nM. Compound `CNC(=O)Nc1ccc(-c2nc(N3CCOCC3)c3c(n2)C2(CC2)OC3)cc1` [Example 16, 1-methyl-3-(4-(4′-morpholino-5′H-spiro[cyclopropane-1,7′-furo[3,4-d]pyrimidine]-2′-yl)phenyl)urea] has an IC50 of under 31.6 nM.
